From ChEMBL document CHEMBL4052594, “Discovery of Pyrrolidine-Containing GPR40 Agonists: Stereochemistry Effects a Change in Binding Mode” (J Med Chem, 2017)

Experiments:
Assay type in all cases: functional, cell-based
[1] = biological target: Free fatty acid receptor 1 (Homo sapiens, UniProt O14842); test: Agonist activity at human GPR40 expressed in CHO-A12 cells assessed as increase in intracellular calcium flux measured for 100 secs by FLIPR assay
[2] = biological target: Free fatty acid receptor 1 (Mus musculus, UniProt Q76JU9); test: Agonist activity at mouse GPR40 expressed in CHO-A12 cells assessed as increase in intracellular calcium flux measured for 100 secs by FLIPR assay
Free fatty acid receptor 1 (Mus musculus, UniProt Q76JU9), sequence (Q76JU9 whole entry): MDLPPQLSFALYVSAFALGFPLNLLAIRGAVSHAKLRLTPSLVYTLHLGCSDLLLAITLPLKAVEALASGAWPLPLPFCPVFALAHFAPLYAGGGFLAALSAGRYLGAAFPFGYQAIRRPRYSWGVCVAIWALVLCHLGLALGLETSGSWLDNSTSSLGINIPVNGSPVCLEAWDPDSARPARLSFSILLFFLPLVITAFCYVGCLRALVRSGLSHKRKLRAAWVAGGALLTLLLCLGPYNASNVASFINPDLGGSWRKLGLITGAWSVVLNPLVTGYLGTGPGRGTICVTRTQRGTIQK

[3] = biological target: Free fatty acid receptor 1 (Mus musculus) (UniProt Q76JU9); test: Intrinsic activity at mouse GPR40 expressed in CHO-A12 cells assessed as increase in intracellular calcium flux at 8.3 uM measured for 100 secs by FLIPR assay […]
Free fatty acid receptor 1 (Mus musculus), sequence (Q76JU9 whole entry): as above

Free fatty acid receptor 1 (Homo sapiens, UniProt O14842), sequence (O14842 whole entry): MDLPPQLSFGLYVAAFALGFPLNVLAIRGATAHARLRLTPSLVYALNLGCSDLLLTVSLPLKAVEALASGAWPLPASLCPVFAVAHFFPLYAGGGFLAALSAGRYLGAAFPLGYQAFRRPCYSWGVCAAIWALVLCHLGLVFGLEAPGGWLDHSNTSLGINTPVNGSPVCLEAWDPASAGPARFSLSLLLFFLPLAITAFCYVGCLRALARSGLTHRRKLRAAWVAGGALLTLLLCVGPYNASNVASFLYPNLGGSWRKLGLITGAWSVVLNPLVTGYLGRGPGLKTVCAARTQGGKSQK

SMILES | EC50 [1] [µM] | EC50 [2] [µM] | Intrinsic activity [3] [%]
Cc1ccccc1Sc1ccc(N2CCC[C@H]2CC(=O)O)cc1 | 0.57 | > 17 | 
Cc1ccccc1[S+]([O-])c1ccc(N2CCC[C@H]2CC(=O)O)cc1 (mixture of isomers) | > 33 | > 33 | 
COc1ccc(F)c(-c2ccc(Cc3ccc(N4C[C@@H](C(F)(F)F)C[C@@H]4CC(=O)O)cc3)c(C)c2)c1 | 0.15 | 0.053 | 210
Cc1ccccc1Cc1ccc(N2[C@H](CC(=O)O)CC[C@@H]2C)cc1 | 6.2 | > 33 | 
Cc1ccccc1COc1ccc(N2CCC[C@H]2CC(=O)O)cc1C | > 33 | > 33 | 
Cc1ccccc1S(=O)(=O)c1ccc(N2CCC[C@H]2CC(=O)O)cc1 | > 33 | > 33 | 
COc1ccc(F)c(-c2cccc(Oc3ccc(N4CCC[C@H]4CC(=O)O)cc3)c2C)c1 | 0.31 | 3 | 83
Cc1cccc(C)c1Oc1ccc(N2C[C@@H](C(F)(F)F)C[C@H]2CC(=O)O)cc1 | 0.082 | 0.27 | 36
COc1ccc(F)c(-c2ccc(Cc3ccc(N4C[C@H](C(F)(F)F)C[C@H]4CC(=O)O)cc3)c(C)c2)c1 | 1.7 | 1.1 | 140
O=C(O)C[C@@H]1C[C@H](C(F)(F)F)CN1c1ccc(Oc2ccccc2C(F)(F)F)cc1 | 0.31 | 1.3 | 42
CC(C)(C)c1ccccc1Oc1ccc(N2CCC[C@H]2CC(=O)O)cc1 | 6.5 | > 17 | 
CN(C)c1cccc(Oc2ccc(N3CCC[C@H]3CC(=O)O)cc2)c1 | 1.3 | > 33 | 
CCOc1ccccc1Oc1ccc(N2CCC[C@H]2CC(=O)O)cc1 | 1.7 | > 33 | 
COc1ccc(Oc2ccc(N3CCC[C@H]3CC(=O)O)cc2)cc1 | 0.52 | > 33 | 
Cc1ccccc1Cc1ccc(N2CC[C@H](c3ccccc3)[C@H]2CC(=O)O)cc1 | 11 | > 33 | 

Now from value to molecule:

EC50 [1] [µM] | EC50 [2] [µM] | Intrinsic activity [3] [%] | SMILES
11 | > 33 |  | O=C(O)CC1CCCCCN1c1ccc(OCc2ccc(Cl)cc2Cl)cc1 (single isomer, unassigned; enantiomer 2)
8.9 | 14 | 70 | Cc1cc(OCc2ccc(Cl)cc2Cl)ccc1N1CCC[C@H]1CC(=O)O
0.26 | 0.44 | 88 | O=C(O)C[C@@H]1CCN1c1ccc(OCc2ccc(Cl)cc2Cl)cc1
13 | > 17 |  | O=C(O)C[C@H]1CCN1c1ccc(OCc2ccc(Cl)cc2Cl)cc1
0.29 | > 33 |  | O=C(O)C[C@@H]1CCCN1c1ccc(Oc2ccc(Cl)cc2)cc1
2.1 | > 16 |  | O=C(O)C1CCN(c2ccc(OCc3ccc(Cl)cc3Cl)cc2)C1 (configuration not stated)
> 17 | > 33 |  | O=C(O)CC1CCCCN1c1ccc(OCc2ccc(Cl)cc2Cl)cc1 (single isomer, unassigned; enantiomer 2)
5 | > 33 |  | O=C(O)C1CC(=O)N(c2ccc(OCc3ccc(Cl)cc3Cl)cc2)C1 (configuration not stated)
0.49 | > 33 |  | Cc1ccc(Oc2ccc(N3CCC[C@H]3CC(=O)O)cc2)cc1
0.22 | > 33 |  | O=C(O)C[C@@H]1CCCN1c1ccc(OCc2ccc(Cl)cc2Cl)cn1
0.88 | > 17 |  | O=C(O)C[C@H]1CCCN1c1ccc(OCc2ccc(Cl)cc2Cl)cc1
> 33 | > 33 |  | O=C(O)CC1CCCCN1c1ccc(OCc2ccc(Cl)cc2Cl)cc1 (single isomer, unassigned; enantiomer 1)
6.4 | > 16 |  | O=C(O)CC1CCCCCN1c1ccc(OCc2ccc(Cl)cc2Cl)cc1 (single isomer, unassigned; enantiomer 1)
0.68 | > 16 |  | O=C(O)C[C@@H]1CCCN1c1ccc(Oc2cccc(Cl)c2)cc1
> 33 | > 33 |  | O=C(O)CC1CCN(c2ccc(OCc3ccc(Cl)cc3Cl)cc2)C1 (configuration not stated)
